Measurements published in patent US9938261B2, “Heterocyclic compounds and methods of use thereof” (AMBIT BIOSCIENCES CORPORATION, priority 2011, dated 2018).
Read-outs that look alike come from different tables or passages of the source.

How the values were obtained:
FLT3 = target: T1, FLT3 (Homo sapiens, UniProt P36888); experiment: Competition binding assay, FLT3 Kd
T1 construct: made in house
T1 sequence (P36888 27-993): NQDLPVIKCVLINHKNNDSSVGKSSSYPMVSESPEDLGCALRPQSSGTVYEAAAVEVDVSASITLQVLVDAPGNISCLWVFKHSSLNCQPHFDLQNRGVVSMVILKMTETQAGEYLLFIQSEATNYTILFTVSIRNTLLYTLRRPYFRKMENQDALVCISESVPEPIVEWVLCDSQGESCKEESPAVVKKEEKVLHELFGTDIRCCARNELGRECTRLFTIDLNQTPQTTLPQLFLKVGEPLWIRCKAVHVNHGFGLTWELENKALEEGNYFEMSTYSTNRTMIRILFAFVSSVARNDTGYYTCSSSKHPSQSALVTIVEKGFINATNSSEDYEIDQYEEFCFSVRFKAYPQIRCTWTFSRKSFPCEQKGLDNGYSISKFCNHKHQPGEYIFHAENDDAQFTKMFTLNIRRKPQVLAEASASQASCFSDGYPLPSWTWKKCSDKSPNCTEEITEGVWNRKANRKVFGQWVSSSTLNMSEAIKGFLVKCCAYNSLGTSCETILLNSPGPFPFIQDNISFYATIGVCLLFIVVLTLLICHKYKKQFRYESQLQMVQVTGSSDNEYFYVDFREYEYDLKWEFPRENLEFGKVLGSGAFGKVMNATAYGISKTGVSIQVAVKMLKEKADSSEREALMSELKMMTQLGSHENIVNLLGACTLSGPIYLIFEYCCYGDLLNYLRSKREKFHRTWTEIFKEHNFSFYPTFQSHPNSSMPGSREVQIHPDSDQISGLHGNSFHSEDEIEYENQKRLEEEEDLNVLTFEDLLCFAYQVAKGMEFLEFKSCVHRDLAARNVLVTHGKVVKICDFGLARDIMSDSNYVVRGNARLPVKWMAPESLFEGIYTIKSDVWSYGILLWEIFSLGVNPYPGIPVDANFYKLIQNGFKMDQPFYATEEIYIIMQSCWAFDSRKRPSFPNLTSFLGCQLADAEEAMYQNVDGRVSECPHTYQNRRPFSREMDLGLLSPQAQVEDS
Procedure, shortened: (§1)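 Phage-fused or HEK-293/DNA-tagged kinase + ligand-coated streptavidin beads + compound, 1 h RT with shaking. Wash, elute with free ligand 30 min RT, qPCR of eluted kinase. Kd: 11-point 3-fold series.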

KIT = target: T2, KIT (Homo sapiens, UniProt P10721); experiment: Competition binding assay, KIT Kd
T2 construct: made in house
T2 sequence (P10721 26-976): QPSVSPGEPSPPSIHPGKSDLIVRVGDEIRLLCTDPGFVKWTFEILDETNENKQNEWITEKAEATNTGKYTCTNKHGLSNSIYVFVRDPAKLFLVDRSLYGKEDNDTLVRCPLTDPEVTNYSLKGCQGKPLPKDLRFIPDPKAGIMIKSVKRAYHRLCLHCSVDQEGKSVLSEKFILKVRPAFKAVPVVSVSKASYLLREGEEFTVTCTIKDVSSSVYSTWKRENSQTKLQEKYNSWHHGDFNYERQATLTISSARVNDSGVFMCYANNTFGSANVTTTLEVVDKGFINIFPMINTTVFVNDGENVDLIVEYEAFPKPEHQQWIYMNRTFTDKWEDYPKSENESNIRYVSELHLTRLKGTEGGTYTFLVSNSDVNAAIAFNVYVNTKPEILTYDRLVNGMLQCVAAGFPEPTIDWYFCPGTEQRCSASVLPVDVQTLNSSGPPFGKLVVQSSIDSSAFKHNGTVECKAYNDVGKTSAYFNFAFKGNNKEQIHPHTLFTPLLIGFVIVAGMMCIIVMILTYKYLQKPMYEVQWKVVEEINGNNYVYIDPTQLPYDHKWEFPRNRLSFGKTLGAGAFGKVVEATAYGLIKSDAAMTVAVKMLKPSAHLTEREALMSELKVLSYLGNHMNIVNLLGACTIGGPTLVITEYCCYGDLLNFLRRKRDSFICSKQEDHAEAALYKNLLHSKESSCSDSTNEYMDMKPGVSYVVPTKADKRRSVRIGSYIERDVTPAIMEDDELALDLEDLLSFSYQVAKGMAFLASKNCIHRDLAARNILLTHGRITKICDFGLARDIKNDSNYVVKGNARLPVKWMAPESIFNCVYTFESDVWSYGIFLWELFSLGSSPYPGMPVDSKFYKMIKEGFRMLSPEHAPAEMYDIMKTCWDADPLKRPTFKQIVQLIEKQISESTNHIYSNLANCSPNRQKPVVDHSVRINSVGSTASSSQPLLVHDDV
Procedure, shortened: as §1

[1] = target: kinase panel containing either 386 or 392 distinct kinases; experiment: Kinase selectivity score S10 from competition binding panel
Description: Competition binding assays used herein were developed, validated and performed as described in Fabian et al., Nature Biotechnology 2005, 23, 329-336. Kinases were produced as fusions to T7 phage (See, Fabian et al. or WO04/015142) or alternatively, the kinases were expressed in HEK-293 cells and subsequently tagged with DNA for PCR detection (See, WO08/005310). For the binding assays, streptavidin-coated magnetic beads were treated with biotinylated affinity ligands for 30 min at room temperature to generate affinity resins. The liganded beads were blocked with excess biotin and washed with blocking buffer (SeaBlock (Pierce), 1% BSA, 0.05% Tween 20, 1 mM DTT) to remove unbound ligand and to reduce non-specific binding. Binding reactions were assembled by combining kinase, liganded affinity beads, and test compounds in 1× binding buffer (20% SeaBlock, 0.17×PBS, 0.05% Tween 20, 6 mM DTT). Test compounds were prepared as 100× stocks in DMSO and diluted into the aqueous environment. Kds were determined using an eleven point threefold serial dilutions. DMSO or control compounds were was added to control assays lacking a test compound. Primary screen assays were performed in polypropylene 384-well plates in a final volume of 20-40 μL, while Kd determinations were performed in polystyrene 96-well plates in a final volume of 135 μL. The assay plates were incubated at room temperature with shaking for 1 hour to allow the binding reactions to reach equilibrium, and the affinity beads were washed extensively with wash buffer (1×PBS, 0.05% Tween 20) to remove unbound protein. The beads were then resuspended in elution buffer (1×PBS, 0.05% Tween […] non-biotinylated affinity ligand) and incubated at room temperature with shaking for 30 min. The kinase concentration in the eluates was measured by quantitative PCR.
A selectivity score (S10) is a quantitative measure of selectivity of a compound against a panel of kinases. An S10 was calculated for a compound by dividing the number of kinases found to have a percent of control (DMSO) less than 10 by the total number of distinct kinases tested (excluding mutant variants). Percent of control (POC) is calculated by subtracting the signal of the control compound (POC=0) from the signal of the test compound and dividing the outcome by the signal of DMSO (POC=100) minus the signal of the control compound. For the compounds disclosed herein, S10 scores were obtained by testing the compounds at 10 μM concentration in a kinase panel containing either 386 or 392 distinct kinases.

CSF1R = CSF1R (Homo sapiens, UniProt P07333); experiment: Competition binding assay, CSF1R Kd; design: made in house
CSF1R, sequence (P07333 20-972): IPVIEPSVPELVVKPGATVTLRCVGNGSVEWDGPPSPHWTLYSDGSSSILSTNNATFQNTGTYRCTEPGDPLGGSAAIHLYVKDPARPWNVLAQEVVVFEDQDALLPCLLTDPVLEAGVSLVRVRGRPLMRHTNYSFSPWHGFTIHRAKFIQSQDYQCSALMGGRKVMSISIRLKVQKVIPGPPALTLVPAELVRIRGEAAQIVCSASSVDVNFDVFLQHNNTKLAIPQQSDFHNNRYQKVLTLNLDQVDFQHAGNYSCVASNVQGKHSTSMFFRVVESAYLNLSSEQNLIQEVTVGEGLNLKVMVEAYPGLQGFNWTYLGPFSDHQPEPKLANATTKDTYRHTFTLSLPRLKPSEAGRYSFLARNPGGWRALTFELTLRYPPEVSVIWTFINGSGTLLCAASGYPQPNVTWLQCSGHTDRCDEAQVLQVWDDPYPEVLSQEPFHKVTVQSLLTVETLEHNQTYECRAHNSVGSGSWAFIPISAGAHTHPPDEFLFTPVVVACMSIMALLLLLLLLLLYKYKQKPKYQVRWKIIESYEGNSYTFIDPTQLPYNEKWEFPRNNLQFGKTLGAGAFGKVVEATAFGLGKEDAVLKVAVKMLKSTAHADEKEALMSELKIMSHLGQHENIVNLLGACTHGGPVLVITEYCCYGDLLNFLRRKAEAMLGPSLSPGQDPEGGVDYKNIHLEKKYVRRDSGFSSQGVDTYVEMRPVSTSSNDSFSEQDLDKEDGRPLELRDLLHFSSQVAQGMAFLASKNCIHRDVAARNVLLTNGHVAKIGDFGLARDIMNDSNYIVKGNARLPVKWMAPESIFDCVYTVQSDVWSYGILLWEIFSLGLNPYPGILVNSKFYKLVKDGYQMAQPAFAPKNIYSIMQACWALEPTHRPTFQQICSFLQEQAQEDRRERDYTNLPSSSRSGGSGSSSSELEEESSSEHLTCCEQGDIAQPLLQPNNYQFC
Procedure, shortened: as §1

[2] = 10 μM, panel of 386 or 392 distinct kinases
[3] = compounds at 10 μM, 386 or 392 distinct kinases

Compound	Kd (FLT3; competition binding) [nM]	Kd (KIT; competition binding) [nM]	Kinase specificity S(10) [1, 2]	Kd (CSF1R; competition binding) [nM]	Kd (FLT3) [nM]	Kd (KIT) [nM]	Kinase specificity S(10) [1, 3]	Kd (CSF1R) [nM]
O[C@@H]1CCCC[C@H]1Nc1nc2ccc(Cc3cnc4cc(-n5ccnn5)ccn34)cc2s1 [Example 218, (1R,2R)-2-((6-((7-(1H-1,2,3-triazol-1-yl)imidazo[1,2-a]pyridin-3-yl)methyl)benzo[d]thiazol-2-yl)amino)cyclohexanol]	1000 to 5000	500 to 2000	A (A≤0.01)	5 to 20	–	–	–	–
COc1cc2c(cc1-c1cnn(C)c1)ncn2Cc1ccc2nc(N[C@@H]3CCCC[C@H]3O)sc2c1 [Example 51, (1R,2R)-2-((6-((6-methoxy-5-(1-methyl-1H-pyrazol-4-yl)-1H-benzo[d]imidazol-1-yl)methyl)benzo[d]thiazol-2-yl)amino)cyclohexanol]	–	–	–	–	≤ 200	≤ 100	C (C>0.02)	≤ 5
O[C@@H]1Cc2ccccc2[C@H]1Nc1nc2ccc(Cn3cnc4cccnc43)cc2s1 [Example 46, (1R,2R)-1-((6-((3H-imidazo[4,5-b]pyridin-3-yl)methyl)benzo[d]thiazol-2-yl)amino)-2,3-dihydro-1H-inden-2-ol]	–	–	–	–	1000 to 5000	100 to 500	B (0.01<B≤0.02)	≤ 5
COc1cc2ncn(Cc3ccc4nc(N[C@@H](C)C5CCCCC5)sc4c3)c2cc1OC [Example 33, (S)—N-(1-cyclohexylethyl)-6-((5,6-dimethoxy-1H-benzo[d]imidazol-1-yl)methyl)benzo[d]thiazol-2-amine]	–	–	–	–	200 to 1000	≤ 100	C (C>0.02)	5 to 20
CC(=NO)c1ccn2c(Cc3ccc4nc(N[C@@H]5CCCC[C@H]5O)sc4c3)cnc2c1 [Example 202, 1-(3-((2-(((1R,2R)-2-hydroxycyclohexyl)amino)benzo[d]thiazol-6-yl)methyl)imidazo[1,2-a]pyridin-7-yl)ethanone oxime]	1000 to 5000	100 to 500	A (A≤0.01)	5 to 20	–	–	–	–
OC[C@@H](Nc1nc2ccc(Cn3cnc4cccnc43)cc2s1)C1CCCCC1 [Example 63, (S)-2-((6-((3H-imidazo[4,5-b]pyridin-3-yl)methyl)benzo[d]thiazol-2-yl)amino)-2-cyclohexylethanol]	–	–	–	–	≤ 200	≤ 100	C (C>0.02)	5 to 20
O[C@@H]1CCCC[C@H]1Nc1nc2ccc(Cn3cnc4cc(Cl)cnc43)cc2s1 [Example 55, (1R,2R)-2-((6-((6-chloro-3H-imidazo[4,5-b]pyridin-3-yl)methyl)benzo[d]thiazol-2-yl)amino)cyclohexanol]	–	–	–	–	1000 to 5000	≤ 100	B (0.01<B≤0.02)	5 to 20
CC(=O)Nc1cn(Cc2ccc3nc(N[C@@H]4CCCC[C@H]4O)sc3c2)cn1 [Example 101, N-(1-((2-(((1R,2R)-2-hydroxycyclohexyl)amino)benzo[d]thiazol-6-yl)methyl)-1H-imidazol-4-yl)acetamide]	–	–	–	–	200 to 1000	500 to 2000	B (0.01<B≤0.02)	20 to 50
OC[C@@H]1CCCC[C@H]1Nc1nc2ccc(Cn3cnc4cccnc43)cc2s1 [Example 66, ((1R,2R)-2-((6-((3H-imidazo[4,5-b]pyridin-3-yl)methyl)benzo[d]thiazol-2-yl)amino)cyclohexyl)methanol]	–	–	–	–	> 5000	500 to 2000	A (A≤0.01)	5 to 20
ON=C1CCCC[C@H]1Nc1nc2ccc(Cn3cnc4cccnc43)cc2s1 [Example 58, (R)-2-((6-((3H-imidazo[4,5-b]pyridin-3-yl)methyl)benzo[d]thiazol-2-yl)amino)cyclohexanone oxime]	–	–	–	–	1000 to 5000	≤ 100	B (0.01<B≤0.02)	≤ 5
either (1S,2R)-2-((6-((3H-imidazo[4,5-b]pyridin-3-yl)methyl)benzo[d]thiazol-2-yl)amino)-1-methylcyclohexanol or (1R,2R)-2-((6-((3H-imidazo[4,5-b]pyridin-3-yl)methyl)benzo[d]thiazol-2-yl)amino)-1-methylcyclohexanol [Example 59]	–	–	–	–	1000 to 5000	100 to 500	C (C>0.02)	5 to 20
O[C@@H]1CCCC[C@H]1Nc1nc2ccc(Cn3cnc4cccnc43)cc2o1 [Example 56, (1R,2R)-2-((6-((3H-imidazo[4,5-b]pyridin-3-yl)methyl)benzo[d]oxazol-2-yl)amino)cyclohexanol]	–	–	–	–	200 to 1000	≤ 100	C (C>0.02)	5 to 20
O[C@@H]1CCCC[C@H]1Nc1nc2ccc(Cn3cnc4cc(N5CCOCC5)ccc43)cc2s1 [Example 209, (1R,2R)-2-((6-((5-morpholino-1H-benzo[d]imidazol-1-yl)methyl)benzo[d]thiazol-2-yl)amino)cyclohexanol]	200 to 1000	100 to 500	A (A≤0.01)	5 to 20	–	–	–	–
O[C@@H]1Cc2ccccc2[C@H]1Nc1nc2ccc(Cn3cnc4cc(Br)cnc43)cc2s1 [Example 42, (1R,2R)-1-((6-((6-bromo-3H-imidazo[4,5-b]pyridin-3-yl)methyl)benzo[d]thiazol-2-yl)amino)-2,3-dihydro-1H-inden-2-ol]	–	–	–	–	1000 to 5000	≤ 100	B (0.01<B≤0.02)	≤ 5
O[C@@H]1CCCC[C@H]1Nc1nc2ccc(Cn3cnc4cncnc43)cc2s1 [Example 48, (1R,2R)-2-((6-((9H-purin-9-yl)methyl)benzo[d]thiazol-2-yl)amino)cyclohexanol]	–	–	–	–	> 5000	500 to 2000	A (A≤0.01)	5 to 20
Cn1cc(-c2cn(Cc3ccc4nc(N[C@@H]5CCCC[C@H]5O)sc4c3)cn2)cn1 [Example 36, (1R,2R)-2-((6-((4-(1-methyl-1H-pyrazol-4-yl)-1H-imidazol-1-yl)methyl)benzo[d]thiazol-2-yl)amino)cyclohexanol]	–	–	–	–	> 5000	500 to 2000	A (A≤0.01)	5 to 20
O[C@@H]1CCCC[C@H]1Nc1nc2ccc(Cc3cnc4[nH]c5ccccc5n34)cc2s1 [Example 205, (1R,2R)-2-((6-((9H-benzo[d]imidazo[1,2-a]imidazol-3-yl)methyl)benzo[d]thiazol-2-yl)amino)cyclohexanol]	200 to 1000	500 to 2000	B (0.01<B≤0.02)	5 to 20	–	–	–	–
